The values that follow come from publication PMC10993450, “New benzimidazole derivative compounds with in vitro fasciolicidal properties” (Parasites & Vectors, 2024).

Several values for one entry are separate records, joined by “and”; a condition that tells them apart may be missing. Equal values may be shown once. Some results are limits rather than exact numbers.

For data set [1], the system named is Fasciola hepatica eggs (ABZ-susceptible isolate). The experiment in a line: Egg hatch test (EHT), ABZ-susceptible isolates. The class given is cell-based. The following applies: for % Ovicidal activity: ABZ-susceptible isolate. How it is done: Eggs were recovered from gallbladders of cattle naturally infected with F. hepatica at the municipal slaughterhouse of León (Spain). For this, the bile of the gallbladders was filtered through sieves of different diameter size pores (500, 150, and 20 µm) using pressurized tap water. Eggs retained on the 20 µm pore size sieve were collected and stored at 4 °C in darkness until required within a maximum period of 2 months.
The susceptibility of the isolates to ABZ was confirmed by the egg hatch test (EHT) using an ABZ discriminant dose (DD) of 0.5 µM [23]. The technique is described in more detail below.
The in vitro anthelmintic activity of a total of 70 BZDs was initially tested on F. hepatica eggs recovered from gallbladders of cattle naturally infected with ABZ-susceptible isolates. The first screening was performed using a fixed concentration of 50 µM. […] Therefore, only BZDs with ovicidal activities over 80% progressed to the next assays at 10 µM. […] At this last concentration, the ovicidal effect of ABZ, ABZSO, and OXF was also evaluated.
(§1) The in vitro EHT described in the current study was based on previous studies. Briefly, 100–120 eggs were incubated in 990 µL of water and 10 μL of each working solution at 25 °C in the dark for a period of 12 h. After incubation, eggs were gently washed with tap water three times to facilitate compound removal and kept in darkness at 25 °C for 14 days. After this period, eggs were exposed to light for 2 h to stimulate the hatching of eggs. Then, hatched and unhatched eggs were evaluated and counted using an optical microscope. The term “hatched eggs” includes both hatched and embryonated eggs. Negative control eggs were incubated with 10 μL of DMSO in 990 μL of water, reaching a maximum DMSO concentration of 1% (v/v), while ABZ at 0.5 µM was used as positive control. Each compound at a specific concentration was tested in triplicate in the same EHT and repeated at least two different days.
With the aim to characterize the susceptibility of isolates from naturally infected cattle, the drug used in the EHT was ABZ, tested at a discriminant dose of 0.5 μM. Drug susceptibility is assumed when the ovicidal activity is over 70%, resistance when is lower than 40%, and a suspicion of resistance when activity is between these values at 0.5 μM.
(§2) The efficacy of each compound and drug was calculated as its ovicidal activity following the formula below: Ovicidal activity%=100×%eggs hatched in negative control-%egg hatched after drug incubation/%egg hatched in control.

Data set [2] has as its system Fasciola hepatica eggs (ABZ-resistant isolate). The experiment in a line: Egg hatch test (EHT), ABZ-resistant isolate. The following applies: ABZ at discriminant dose (DD) 0.5 µM. It is filed as cell-based.
Excerpt: (§3) F. hepatica eggs were recovered after washing the gallbladder of three naturally infected sheep belonging to a flock suspected to be resistant to ABZ. From these eggs, metacercariae were produced at the Centro de Investigaciones de Mabegondo (AGACAL, Xunta de Galicia, Spain) following a previous protocol. These metacercariae were used to infect eight sheep with a dose of 200 metacercariae. The infection was confirmed individually 3 months after the infection by coprological analysis using a sedimentation technique. At that point, sheep were randomly located in two groups of four animals: one treated with a therapeutic dose of ABZ (7.5 mg/kg) and the other one only with water, as control group. To assess the efficacy of ABZ in this isolate, all sheep were humanely euthanized by an intravenous administration of a lethal dose of sodium pentobarbital (Dolethal®, Vetoquinol, Spain) 2 weeks later for fluke recovery and counting. Afterwards, the in vivo efficacy of ABZ was calculated as the percentage of adult worm reduction compared with the untreated control. Additionally, the number of eggs per gram of feces (EPG) was estimated on the treatment day (mentioned as day 0) and 14 days later to determine drug efficacy by means of the fecal egg count reduction test (FECRT).
During the necropsy, gallbladders from sheep belonging to the untreated group were taken to collect the eggs and carry out the in vitro EHT, while flukes collected from livers were used to conduct the adult viability test (AVT).
Those BZDs with an activity higher than 80% at a concentration of 10 µM were also screened on eggs and adults from the ABZ resistant isolate.
as §1, §2

Data set [3] relates to Fasciola hepatica (resistant isolate). The experiment in a line: In vivo efficacy of ABZ in sheep infected with the resistant isolate (worm count, FECRT). The following applies: ABZ 7.5 mg/kg.
Excerpt: as §3, with “To assess the efficacy of ABZ in this isolate, all sheep were humanely euthanized by an intravenous administration of a lethal dose of sodium pentobarbital (Dolethal®, Vetoquinol, Spain) 2 weeks later for fluke recovery and counting.” left out, “Additionally, the number of eggs per gram of feces (EPG) was estimated on the treatment day (mentioned as day 0) and 14 days later to determine drug efficacy by means of the fecal egg count reduction test (FECRT).” left out
The percentage of in vivo efficacy of ABZ and the FECRT were calculated using the following formulas, respectively: %of Worm Reduction=100×Mean of adult worms in control group-Mean of adult worms in treated group/Mean of adult worms in control group. %FECRT=100×Arithmetic mean EPG day0-Arithmetic mean EPG day 14/Arithmetic mean EPG day0.

The subject of another data set is Fasciola hepatica eggs. Also on record: method as in PMID 19560276. The following applies: other studies, cited from earlier work.
Data set [4] relates to Teladorsagia circumcincta eggs. The following applies: read-out: 50% inhibitory concentration (IC50) in eggs by the EHT; T. circumcincta eggs; type I BZDs; cited from earlier work.
In data set [5] the test system is Heligmosomoides polygyrus adults. Also on record: method as in PMID 35804427. Conditions: 10 µM; cited from earlier work.
The subject of a further data set is Trichuris muris adults. Also on record: method as in PMID 35804427. The following applies: 10 µM; cited from earlier work.
For the next data set, the system named is HepG2 cells. The data set can be described thus: Cytotoxicity assay, alamarBlue. The class given is cell-based, human. How it is done: (§4) The effect of the BZDs on cell viability was assessed on a human hepatocarcinoma HepG2 (ATCC® HB-8065™, USA) cell line. Only compounds screened at a concentration of 10 µM were evaluated. The detailed protocol is described in a previous study carried out by our research group. Briefly, 10,000 cells were seeded on 96-well plates and incubated with different concentrations of the compounds ranging from 1 to 100 µM at 37 °C and 5% CO2. After 72 h of exposure, viability of the cells was assessed using the alamarBlue (Fisher Scientific®, Spain) staining method according to the manufacturer’s recommendations.
(§5) The data are represented as mean ± standard error of media (SEM).

Data set [6] has as its system murine intestinal organoids. The data set can be described thus: Intestinal tolerability assay on murine intestinal organoids. The class given is cell-based, mouse. Conditions: 25 µM. How it is done: (§6) The murine intestinal organoid cultures were prepared following Stemcell Technologies™ protocols (https://www.stemcell.com/intestinal-epithelial-organoid-culture-with-intesticult-organoid-growth-medium-mouse-lp.html#protocols). Small intestine sections from C57BL/6 mice were excised, washed with ice-cold PBS, minced, and 2 mm segments were washed extensively. The segments were treated with Gentle Cell Dissociation Reagent (Stemcell Technologies™, Canada), resuspended in ice-cold PBS with 0.1% BSA and filtered. This process was repeated four times, resulting in four fractions. Cells from each fraction were centrifuged, washed, and resuspended in ice-cold DMEM/F12 supplemented with glutamine and HEPES 15 mM. Each fraction was mixed with Geltrex GFR LDEV-free (Gibco, Thermo Fisher Scientific, USA) and IntestiCult™ Organoid Grow Medium Mouse (Stemcell Technologies™, Canada), added to a 24-well plate and incubated at 37 °C for 10 min for matrix polymerization. The organoids were cultured in IntestiCult™ Organoid Grow Medium Mouse, with medium changes every 2 days and splitting after 7 days.
(§7) For intestinal tolerability assays, selected hit compounds were tested in mouse intestinal organoids at 25 and 50 µM final concentrations. The protocol, based on a previous work, involved the addition of Gentle Cell Dissociation Reagent (Stemcell Technologies™, Canada) on matrix domes, the disruption of the matrix, and the incubation the suspension. After centrifugation, cells were resuspended in DMEM/F12 supplemented with glutamine and HEPES 15 mM and centrifugated again. The pellet was resuspended in a mix of Geltrex GFR LDEV-free and IntestiCult™ Organoid Grow Medium Mouse. The mix was plated in 384-well plates, and after 4 days, mature organoids were exposed to the compounds. The positive control was hydrogen peroxide (0.15% v/v), and the negative control was DMSO (0.2%). Viability after 72 h was assessed using the alamarBlue assay.

In another data set the test system is Haemonchus contortus. The following applies: sheep infected with Haemonchus contortus, 120 mg/kg; cited from earlier work.
A short description of data set [7]: Cytotoxicity assay, alamarBlue. The class given is cell-based, human. The following applies: human, HepG2 cells; 72 h exposure, alamarBlue; read-out: CC50 Hep-G2. How it is done:
as §4, §5

Data set [8] in a line: Intestinal tolerability assay on murine intestinal organoids. The class given is cell-based, mouse. The following applies: C57BL/6, mouse, murine small-intestinal organoids, 72 h. How it is done: as §6, §7

In the case of `CCCSc1ccc2nc(NC(=O)OC)[nH]c2c1` [ABZ, albendazole, reference compound], the “% Ovicidal activity” value in data set [1] (ABZ at discriminant dose (DD) 0.5 µM) was 99.1% and 98%; in data set [1] (ABZ at discriminant dose (DD) 0.5 µM, listed as ABZ (DD)), 99.01 ± 00.37% and 98.55 ± 00.41%. The “% Ovicidal activity resistant isolate” value in data set [2] was 36.5%; in [2] (listed as ABZ (DD)), 36.46 ± 02.36%. Besides, the “reduction in the number of eggs in feces (FECRT)” value in [3] (day 0 vs day 14) is recorded as 0%. In addition, the “survival rate of the adult flukes” value in data set [3] (necropsy 2 weeks after treatment) is 96.7%. The “Lowest concentration able to reduce egg hatching” value in the data set on Fasciola hepatica eggs (in vitro) was 0.05 µM.

For `Clc1ccc(-c2nc3cc(Cl)ccc3[nH]2)cc1` [BZD09], in [1] (50 µM, mean ± SEM), the “% Ovicidal activity” value worked out at 04.96 ± 1.22%. For the same molecule, in [4], the IC50 was 6 µM. Also, in data set [5], the “Inhibition of motility of Heligmosomoides polygyrus adults” value was “effectively inhibited the motility”.

Regarding `O=[N+]([O-])c1ccc2[nH]c(-c3ccc(Cl)cc3)nc2c1` [BZD15], the “% Ovicidal activity” value in data set [1] (50 µM, mean ± SEM) was 24.32 ± 10.58%. Further, the “Inhibition of Trichuris muris adult motility” value with Trichuris muris adults is listed as “inhibited Trichuris muris adult motility”.

`O=C(Nc1nc2cc(Cl)ccc2[nH]1)c1ccccn1` [BZD58]: the “% Ovicidal activity” value is “around 50%” in data set [1] (10 µM, mean ± SEM) and “higher than 80%” in data set [1] (50 µM, mean ± SEM). Also, the CC50 with HepG2 cells was above 5 µM. Also, in data set [6], the “% Viability in organoids” value was 100%. For the same molecule, the in vivo efficacy in the data set with Haemonchus contortus is on record as 95%.

With `CSc1nc2cc(Cl)c(Oc3cccc(Cl)c3Cl)cc2[nH]1` [TCBZ, triclabendazole, reference compound], the killing at 5 µM in [1] (Fasciola hepatica, 5 µM, mean ± SEM, read-out: % Ovicidal activity susceptible isolate) was at most 2%. In addition, in [7], the CC50 at 72 h is above 50 µM. This molecule showed a viability at 72 h, 25 µM in data set [8] (25 µM) of around 82%. The same molecule displayed a viability at 72 h, 50 µM in [8] (50 µM) of around 1.5%. Also, the “Effect on in vitro egg hatching” value with Fasciola hepatica eggs is reported as “did not affect in vitro egg hatching”.
